According to patent US20240277698A1, “METHODS OF USING ALDOSTERONE SYNTHASE INHIBITORS” (CINCOR PHARMA, INC., priority 2021, published 2024):

Tests used:
[1] = MAD study: predose plasma adrenocorticotropic hormone (ACTH); type: in vivo, human
From the text: Table 10 presents mean predose plasma ACTH concentrations over time and change and percent change from Day 1 to Day 10 predose concentrations by treatment group for the PD Population.

[2] = Single-ascending dose (SAD) study in healthy subjects: plasma and urine pharmacokinetics; settings: human, in vivo
Description: A second, generally lower peak was often observed at 3 to 4 hours postdose.
A second, generally lower peak was often observed at 3 to 4 hours post-dose. […] Over the anticipated therapeutically relevant dose range (through 10 mg), peak and overall exposures (as assessed by Cmax and area under the concentration-time curve [AUC]) increased in a generally dose-proportional manner.
Single- and Multiple-Dose Plasma Pharmacokinetics of (R)-compound 1. The single- and multiple-dose PK profiles of (R)-compound 1 have been characterized in healthy subjects in the Phase 1 studies. FIG. 7 depicts the mean plasma concentration versus time profiles of (R)-compound 1 after administration of single oral doses of (R)-compound 1 ranging from 1 mg to 360 mg (under low salt conditions) and at steady-state over the range of 0.5 mg to 5 mg (under low and/or normal salt conditions). After oral administration, (R)-compound 1 is rapidly absorbed with peak concentrations observed within 3 hours after dosing (range 0.5 to 4 hours).

Question: With `CCC(=O)N[C@@H]1CCCc2c(-c3ccc4c(c3)CCC(=O)N4C)cncc21` [(R)-Compound 1, (R)—N-(4-(1-methyl-2-oxo-1,2,3,4-tetrahydroquinolin-6-yl)-5,6,7,8-tetrahydroisoquinolin-8-yl)propionamide] as the compound, how does the “Plasma ACTH, change from Day 1 to Day 10, predose, mean” value (from here on “Plasma ACTH, change”) ([1]; 0.5 mg, normal salt diet) read?
Answer: -0.15 pmol/L

Question: And the “Plasma ACTH, percent change from Day 1 to Day 10, predose, mean” value (from here on “Plasma ACTH, percent change”) ([1]; 0.5 mg, normal salt diet)?
Answer: −2.01%

Question: And the “Plasma ACTH, change” value ([1]; 1.5 mg, normal salt diet)?
Answer: -1.63 pmol/L

Question: And the “Plasma ACTH, percent change” value ([1]; 1.5 mg, normal salt diet)?
Answer: −24.00%

Question: And the “Plasma ACTH, change” value ([1]; 2.5 mg, low salt diet)?
Answer: 2.11 pmol/L

Question: And the “Plasma ACTH, percent change” value ([1]; 2.5 mg, low salt diet)?
Answer: 184.44%

Question: And the “Plasma ACTH, change” value ([1]; 2.5 mg, normal salt diet)?
Answer: -4.04 pmol/L

Question: And the “Plasma ACTH, percent change” value ([1]; 2.5 mg, normal salt diet)?
Answer: −35.69%

Question: What about the “Plasma ACTH, change” value ([1]; 5.0 mg, low salt diet) of the same compound?
Answer: 1.57 pmol/L

Question: And the “Plasma ACTH, percent change” value ([1]; 5.0 mg, low salt diet)?
Answer: 125.86%

Question: And the “Predose plasma ACTH, mean” value ([1]; Day 1, predose, 0.5 mg, normal salt diet)?
Answer: 3.91 pmol/L

Question: What about the “Predose plasma ACTH, mean” value ([1]; Day 1, predose, 1.5 mg, normal salt diet) of the same compound?
Answer: 6.30 pmol/L

Question: And the “Predose plasma ACTH, mean” value ([1]; Day 1, predose, 2.5 mg, low salt diet)?
Answer: 1.47 pmol/L

Question: What about the “Predose plasma ACTH, mean” value ([1]; Day 1, predose, 2.5 mg, normal salt diet) of the same compound?
Answer: 6.40 pmol/L

Question: What about the “Predose plasma ACTH, mean” value ([1]; Day 1, predose, 5.0 mg, low salt diet) of the same compound?
Answer: 1.96 pmol/L

Question: What about the “Predose plasma ACTH, mean” value ([1]; Day 10, predose, 0.5 mg, normal salt diet) of the same compound?
Answer: 3.76 pmol/L

Question: And the “Predose plasma ACTH, mean” value ([1]; Day 10, predose, 1.5 mg, normal salt diet)?
Answer: 4.67 pmol/L

Question: What about the “Predose plasma ACTH, mean” value ([1]; Day 10, predose, 2.5 mg, low salt diet) of the same compound?
Answer: 3.59 pmol/L

Question: What about the “Predose plasma ACTH, mean” value ([1]; Day 10, predose, 2.5 mg, normal salt diet) of the same compound?
Answer: 2.80 pmol/L

Question: And the “Predose plasma ACTH, mean” value ([1]; Day 10, predose, 5.0 mg, low salt diet)?
Answer: 3.52 pmol/L

Question: What about the “ACTH increase compared to placebo” value ([1]; low salt diet conditions (Cohorts 1 and 2)) of the same compound?
Answer: somewhat more pronounced

Question: And the ACTH ([1]; normal salt diet conditions)?
Answer: apparent dose-dependent decreases

Question: What about the CL renal [2] of the same compound?
Answer: 4.63 to 7.38 mL/min

Question: And the “Renal clearance as share of total plasma clearance, average” value [2]?
Answer: 15.5%

Question: And the “Renal clearance as share of total plasma clearance, range of individual values” [2]?
Answer: 6.53-31.8%

Question: What about the fraction unbound [2] of the same compound?
Answer: 0.26

Question: And the “dose recovered unchanged in the urine” value ([2]; po)?
Answer: Approximately 110%

Question: And the half-life ([2]; po)?
Answer: 25 to 31 h

Question: And the “median time (tmax) to maximum observed concentration (Cmax)” value ([2]; po)?
Answer: 0.5 to 2 h

Question: And the “second, generally lower peak, time postdose” value ([2]; po)?
Answer: 3 to 4 h

Question: What about the “time to peak concentrations, range” value ([2]; po) of the same compound?
Answer: 0.5 to 4 h

Question: What about the AUC(0-inf) ([2]; po, 1 mg) of the same compound?
Answer: 330 ng·h/mL

Question: What about the AUC(0-t) ([2]; po, 1 mg) of the same compound?
Answer: 147 ng·h/mL

Question: And the AUCextrapoloated ([2]; po, 1 mg)?
Answer: 1.66%

Question: What about the CL/F ([2]; po, 1 mg) of the same compound?
Answer: 3270 mL/h

Question: And the Cmax ([2]; po, 1 mg)?
Answer: 10.1 ng/mL

Question: And the Tmax ([2]; po, 1 mg)?
Answer: 1 h

Question: And the Vd/F ([2]; po, 1 mg)?
Answer: 122 L

Question: What about the half-life ([2]; po, 1 mg) of the same compound?
Answer: 27.4 h

Question: What about the AUC(0-inf) ([2]; po, 3 mg) of the same compound?
Answer: 1070 ng·h/mL

Question: What about the AUC(0-t) ([2]; po, 3 mg) of the same compound?
Answer: 491 ng·h/mL

Question: And the AUCextrapoloated ([2]; po, 3 mg)?
Answer: 1.68%

Question: What about the CL/F ([2]; po, 3 mg) of the same compound?
Answer: 2820 mL/h

Question: What about the Cmax ([2]; po, 3 mg) of the same compound?
Answer: 31.9 ng/mL

Question: What about the Tmax ([2]; po, 3 mg) of the same compound?
Answer: 2 h

Question: What about the Vd/F ([2]; po, 3 mg) of the same compound?
Answer: 117 L

Question: And the half-life ([2]; po, 3 mg)?
Answer: 29.1 h

Question: What about the AUC(0-inf) ([2]; po, 10 mg) of the same compound?
Answer: 3630 ng·h/mL

Question: What about the AUC(0-t) ([2]; po, 10 mg) of the same compound?
Answer: 1600 ng·h/mL

Question: And the AUCextrapoloated ([2]; po, 10 mg)?
Answer: 1.37%

Question: And the CL/F ([2]; po, 10 mg)?
Answer: 2820 mL/h

Question: What about the Cmax ([2]; po, 10 mg) of the same compound?
Answer: 125 ng/mL

Question: And the Tmax ([2]; po, 10 mg)?
Answer: 0.5 h

Question: What about the Vd/F ([2]; po, 10 mg) of the same compound?
Answer: 123 L

Question: What about the half-life ([2]; po, 10 mg) of the same compound?
Answer: 30.7 h

Question: And the AUC(0-inf) ([2]; po, 30 mg)?
Answer: 11000 ng·h/mL

Question: And the AUC(0-t) ([2]; po, 30 mg)?
Answer: 5260 ng·h/mL

Question: And the AUCextrapoloated ([2]; po, 30 mg)?
Answer: 0.986%

Question: And the CL/F ([2]; po, 30 mg)?
Answer: 2820 mL/h

Question: What about the Cmax ([2]; po, 30 mg) of the same compound?
Answer: 386 ng/mL

Question: What about the Tmax ([2]; po, 30 mg) of the same compound?
Answer: 0.75 h

Question: And the half-life ([2]; po, 30 mg)?
Answer: 29.4 h

Question: What about the AUC(0-inf) ([2]; po, 90 mg) of the same compound?
Answer: 32200 ng·h/mL

Question: What about the AUC(0-t) ([2]; po, 90 mg) of the same compound?
Answer: 18300 ng·h/mL

Question: And the AUCextrapoloated ([2]; po, 90 mg)?
Answer: 0456%

Question: And the CL/F ([2]; po, 90 mg)?
Answer: 2830 mL/h

Question: What about the Cmax ([2]; po, 90 mg) of the same compound?
Answer: 1380 ng/mL

Question: What about the Tmax ([2]; po, 90 mg) of the same compound?
Answer: 1.25 h

Question: And the Vd/F ([2]; po, 90 mg)?
Answer: 102 L

Question: And the half-life ([2]; po, 90 mg)?
Answer: 25.3 h

Question: And the AUC(0-inf) ([2]; po, 180 mg)?
Answer: 65800 ng·h/mL

Question: And the AUC(0-t) ([2]; po, 180 mg)?
Answer: 33200 ng·h/mL

Question: And the AUCextrapoloated ([2]; po, 180 mg)?
Answer: 0.789%

Question: What about the CL/F ([2]; po, 180 mg) of the same compound?
Answer: 2900 mL/h

Question: And the Cmax ([2]; po, 180 mg)?
Answer: 2490 ng/mL

Question: What about the Tmax ([2]; po, 180 mg) of the same compound?
Answer: 1 h

Question: What about the Vd/F ([2]; po, 180 mg) of the same compound?
Answer: 114 L

Question: What about the half-life ([2]; po, 180 mg) of the same compound?
Answer: 28 h

Question: What about the AUC(0-inf) ([2]; po, 360 mg) of the same compound?
Answer: 147000 ng·h/mL

Question: What about the AUC(0-t) ([2]; po, 360 mg) of the same compound?
Answer: 73200 ng·h/mL

Question: What about the AUCextrapoloated ([2]; po, 360 mg) of the same compound?
Answer: 0719%

Question: And the CL/F ([2]; po, 360 mg)?
Answer: 2480 mL/h

Question: And the Cmax ([2]; po, 360 mg)?
Answer: 5750 ng/mL

Question: And the Tmax ([2]; po, 360 mg)?
Answer: 0.5 h

Question: What about the half-life ([2]; po, 360 mg) of the same compound?
Answer: 27.8 h
